Assay results taken from ChEMBL document CHEMBL1142758, “Neuroprotective effects of naturally occurring biflavonoids” (2005).

Test: Protective effect of compound on Ab25 35-induced cell death in SH-SY5Y cells (concentration = 4 uM)
Assay type: functional

| SMILES | Inhibition [%] |
| --- | --- |
| COc1ccc(C2=CC(=O)C3C(O)=CC(O)=C(c4cc(-c5cc(=O)c6c(O)cc(O)cc6o5)ccc4OC)C3O2)cc1 (stereo not given) | 59.1 |
| COc1ccc(-c2cc(=O)c3c(O)cc(O)cc3o2)cc1C1=C(O)C=C(O)C2C(=O)C=C(c3ccc(O)cc3)OC12 (stereo not given) | 1.9 |
| COc1cc(O)c2c(=O)cc(-c3ccc(OC)c(C4=C(O)C=C(O)C5C(=O)C=C(c6ccc(O)cc6)OC45)c3)oc2c1 (stereo not given) | 43.6 |
| COc1ccc(-c2cc(=O)c3c(O)cc(O)cc3o2)cc1Oc1ccc(-c2cc(=O)c3c(O)cc(O)cc3o2)cc1 | 0.9 |

Test: Protective effect of compound on SNP-induced cell death in SH-SY5Y cells (concentration = 0.4 uM)
Assay type: functional

| SMILES | Inhibition [%] |
| --- | --- |
| COc1ccc(C2=CC(=O)C3C(O)=CC(O)=C(c4cc(-c5cc(=O)c6c(O)cc(O)cc6o5)ccc4OC)C3O2)cc1 (stereo not given) | 6.9 |
| COc1ccc(-c2cc(=O)c3c(O)cc(O)cc3o2)cc1C1=C(O)C=C(O)C2C(=O)C=C(c3ccc(O)cc3)OC12 (stereo not given) | 2.5 |
| COc1ccc(-c2cc(=O)c3c(O)cc(O)cc3o2)cc1Oc1ccc(-c2cc(=O)c3c(O)cc(O)cc3o2)cc1 | 2.9 |

Test: Protective effect of test compound on Ab25 35-induced cell death in SH-SY5Y cells (concentration = 4 uM)
Assay type: functional

| SMILES | Inhibition [µM] |
| --- | --- |
| O=C1C=C(c2ccc(O)cc2)OC2C(c3cc(-c4cc(=O)c5c(O)cc(O)cc5o4)ccc3O)=C(O)C=C(O)C12 (stereo not given) | 25.4 |

Test: Protective effect of test compound on SNP-induced cell death in SH-SY5Y cells (concentration = 10 uM)
Assay type: functional

| SMILES | Inhibition [µM] |
| --- | --- |
| O=C1C=C(c2ccc(O)cc2)OC2C(c3cc(-c4cc(=O)c5c(O)cc(O)cc5o4)ccc3O)=C(O)C=C(O)C12 (stereo not given) | 40.5 |

Test: Protective effect of compound on Ab25 35-induced cell death in SH-SY5Y cells (concentration = 10 uM)
Assay type: functional

| SMILES | Inhibition |
| --- | --- |
| COc1ccc(C2=CC(=O)C3C(O)=CC(O)=C(c4cc(-c5cc(=O)c6c(O)cc(O)cc6o5)ccc4OC)C3O2)cc1 (stereo not given) | 43.8 µM |
| COc1ccc(-c2cc(=O)c3c(O)cc(O)cc3o2)cc1C1=C(O)C=C(O)C2C(=O)C=C(c3ccc(O)cc3)OC12 (stereo not given) | -7.5% |
| COc1cc(O)c2c(=O)cc(-c3ccc(OC)c(C4=C(O)C=C(O)C5C(=O)C=C(c6ccc(O)cc6)OC45)c3)oc2c1 (stereo not given) | 5.6% |
| COc1ccc(-c2cc(=O)c3c(O)cc(O)cc3o2)cc1Oc1ccc(-c2cc(=O)c3c(O)cc(O)cc3o2)cc1 | 14.8% |

Test: Protective effect of test compound on Ab25 35-induced cell death in SH-SY5Y cells (concentration = 0.2 uM)
Assay type: functional

| SMILES | Inhibition [µM] |
| --- | --- |
| O=C1C=C(c2ccc(O)cc2)OC2C(c3cc(-c4cc(=O)c5c(O)cc(O)cc5o4)ccc3O)=C(O)C=C(O)C12 (stereo not given) | 3.6 |

Test: Protective effect of test compound on Ab25 35-induced cell death in SH-SY5Y cells (concentration = 10 uM)
Assay type: functional

| SMILES | Inhibition [µM] |
| --- | --- |
| O=C1C=C(c2ccc(O)cc2)OC2C(c3cc(-c4cc(=O)c5c(O)cc(O)cc5o4)ccc3O)=C(O)C=C(O)C12 (stereo not given) | 31.8 |

Test: Protective effect of test compound on hydrogen peroxide-induced cell death in SH-SY5Y cells (concentration = 2 uM)
Assay type: functional

| SMILES | Inhibition [µM] |
| --- | --- |
| O=C1C=C(c2ccc(O)cc2)OC2C(c3cc(-c4cc(=O)c5c(O)cc(O)cc5o4)ccc3O)=C(O)C=C(O)C12 (stereo not given) | 39.9 |

Test: Protective effect of compound on SNP-induced cell death in SH-SY5Y cells (concentration = 10 uM)
Assay type: functional

| SMILES | Inhibition [%] |
| --- | --- |
| COc1ccc(C2=CC(=O)C3C(O)=CC(O)=C(c4cc(-c5cc(=O)c6c(O)cc(O)cc6o5)ccc4OC)C3O2)cc1 (stereo not given) | 23.5 |
| COc1ccc(-c2cc(=O)c3c(O)cc(O)cc3o2)cc1C1=C(O)C=C(O)C2C(=O)C=C(c3ccc(O)cc3)OC12 (stereo not given) | 11 |
| COc1cc(O)c2c(=O)cc(-c3ccc(OC)c(C4=C(O)C=C(O)C5C(=O)C=C(c6ccc(O)cc6)OC45)c3)oc2c1 (stereo not given) | 32.4 |
| COc1ccc(-c2cc(=O)c3c(O)cc(O)cc3o2)cc1Oc1ccc(-c2cc(=O)c3c(O)cc(O)cc3o2)cc1 | 1.6 |

Test: Protective effect of compound on Ab25 35-induced cell death in SH-SY5Y cells (concentration = 0.2 uM)
Assay type: functional

| SMILES | Inhibition |
| --- | --- |
| COc1ccc(C2=CC(=O)C3C(O)=CC(O)=C(c4cc(-c5cc(=O)c6c(O)cc(O)cc6o5)ccc4OC)C3O2)cc1 (stereo not given) | 19.7% |
| COc1ccc(-c2cc(=O)c3c(O)cc(O)cc3o2)cc1C1=C(O)C=C(O)C2C(=O)C=C(c3ccc(O)cc3)OC12 (stereo not given) | 9.8% |
| COc1cc(O)c2c(=O)cc(-c3ccc(OC)c(C4=C(O)C=C(O)C5C(=O)C=C(c6ccc(O)cc6)OC45)c3)oc2c1 (stereo not given) | 29.5 µM |
| COc1ccc(-c2cc(=O)c3c(O)cc(O)cc3o2)cc1Oc1ccc(-c2cc(=O)c3c(O)cc(O)cc3o2)cc1 | 13% |

Test: Protective effect of compound on compounds on SNP-induced cell death in SH-SY5Y cells (concentration = 0.4 uM)
Assay type: functional

| SMILES | Inhibition [µM] |
| --- | --- |
| COc1cc(O)c2c(=O)cc(-c3ccc(OC)c(C4=C(O)C=C(O)C5C(=O)C=C(c6ccc(O)cc6)OC45)c3)oc2c1 (stereo not given) | -0.1 |

Test: Protective effect of compound on SNP-induced cell death in SH-SY5Y cells (concentration = 2 uM)
Assay type: functional

| SMILES | Inhibition [%] |
| --- | --- |
| COc1ccc(C2=CC(=O)C3C(O)=CC(O)=C(c4cc(-c5cc(=O)c6c(O)cc(O)cc6o5)ccc4OC)C3O2)cc1 (stereo not given) | 10.5 |
| COc1ccc(-c2cc(=O)c3c(O)cc(O)cc3o2)cc1C1=C(O)C=C(O)C2C(=O)C=C(c3ccc(O)cc3)OC12 (stereo not given) | 4.8 |
| COc1cc(O)c2c(=O)cc(-c3ccc(OC)c(C4=C(O)C=C(O)C5C(=O)C=C(c6ccc(O)cc6)OC45)c3)oc2c1 (stereo not given) | 7.8 |
| COc1ccc(-c2cc(=O)c3c(O)cc(O)cc3o2)cc1Oc1ccc(-c2cc(=O)c3c(O)cc(O)cc3o2)cc1 | 0.1 |

Test: Protective effect of compound on hydrogen peroxide-induced cell death in SH-SY5Y cells (concentration = 10 uM)
Assay type: functional

| SMILES | Inhibition [%] |
| --- | --- |
| COc1ccc(C2=CC(=O)C3C(O)=CC(O)=C(c4cc(-c5cc(=O)c6c(O)cc(O)cc6o5)ccc4OC)C3O2)cc1 (stereo not given) | 55.1 |
| O=C1C=C(c2ccc(O)cc2)OC2C(c3cc(-c4cc(=O)c5c(O)cc(O)cc5o4)ccc3O)=C(O)C=C(O)C12 (stereo not given) | 62 |
| COc1ccc(-c2cc(=O)c3c(O)cc(O)cc3o2)cc1C1=C(O)C=C(O)C2C(=O)C=C(c3ccc(O)cc3)OC12 (stereo not given) | 62.9 |
| COc1cc(O)c2c(=O)cc(-c3ccc(OC)c(C4=C(O)C=C(O)C5C(=O)C=C(c6ccc(O)cc6)OC45)c3)oc2c1 (stereo not given) | 35.7 |
| COc1ccc(-c2cc(=O)c3c(O)cc(O)cc3o2)cc1Oc1ccc(-c2cc(=O)c3c(O)cc(O)cc3o2)cc1 | 12.1 |

Test: Protective effect of compound on hydrogen peroxide-induced cell death in SH-SY5Y cells (concentration = 2 uM)
Assay type: functional

| SMILES | Inhibition [%] |
| --- | --- |
| COc1ccc(C2=CC(=O)C3C(O)=CC(O)=C(c4cc(-c5cc(=O)c6c(O)cc(O)cc6o5)ccc4OC)C3O2)cc1 (stereo not given) | 28.7 |
| COc1ccc(-c2cc(=O)c3c(O)cc(O)cc3o2)cc1C1=C(O)C=C(O)C2C(=O)C=C(c3ccc(O)cc3)OC12 (stereo not given) | 30.4 |
| COc1cc(O)c2c(=O)cc(-c3ccc(OC)c(C4=C(O)C=C(O)C5C(=O)C=C(c6ccc(O)cc6)OC45)c3)oc2c1 (stereo not given) | 12.2 |
| COc1ccc(-c2cc(=O)c3c(O)cc(O)cc3o2)cc1Oc1ccc(-c2cc(=O)c3c(O)cc(O)cc3o2)cc1 | -1.2 |

Test: Protective effect of test compound on SNP-induced cell death in SH-SY5Y cells (concentration = 2 uM)
Assay type: functional

| SMILES | Inhibition [µM] |
| --- | --- |
| O=C1C=C(c2ccc(O)cc2)OC2C(c3cc(-c4cc(=O)c5c(O)cc(O)cc5o4)ccc3O)=C(O)C=C(O)C12 (stereo not given) | 16.4 |

Test: Protective effect of test compound on SNP-induced cell death in SH-SY5Y cells (concentration = 0.4 uM)
Assay type: functional

| SMILES | Inhibition [µM] |
| --- | --- |
| O=C1C=C(c2ccc(O)cc2)OC2C(c3cc(-c4cc(=O)c5c(O)cc(O)cc5o4)ccc3O)=C(O)C=C(O)C12 (stereo not given) | 5.2 |

Test: Protective effect of compound on hydrogen peroxide-induced cell death in SH-SY5Y cells (concentration = 0.4 uM)
Assay type: functional

| SMILES | Inhibition [%] |
| --- | --- |
| COc1ccc(C2=CC(=O)C3C(O)=CC(O)=C(c4cc(-c5cc(=O)c6c(O)cc(O)cc6o5)ccc4OC)C3O2)cc1 (stereo not given) | 40.1 |
| O=C1C=C(c2ccc(O)cc2)OC2C(c3cc(-c4cc(=O)c5c(O)cc(O)cc5o4)ccc3O)=C(O)C=C(O)C12 (stereo not given) | 27 |
| COc1ccc(-c2cc(=O)c3c(O)cc(O)cc3o2)cc1C1=C(O)C=C(O)C2C(=O)C=C(c3ccc(O)cc3)OC12 (stereo not given) | 25.3 |
| COc1cc(O)c2c(=O)cc(-c3ccc(OC)c(C4=C(O)C=C(O)C5C(=O)C=C(c6ccc(O)cc6)OC45)c3)oc2c1 (stereo not given) | 11.3 |
| COc1ccc(-c2cc(=O)c3c(O)cc(O)cc3o2)cc1Oc1ccc(-c2cc(=O)c3c(O)cc(O)cc3o2)cc1 | 1.8 |
